Laboratory results taken from ChEMBL document CHEMBL3217615, “Novel 3,5-bis(arylidiene)-4-piperidone based monocarbonyl analogs of curcumin: anticancer activity evaluation and mode of action study” (2014).

Experiments:
Assay type in all cases: functional
[1] = Growth inhibition of human OVCAR5 cells assessed as cell growth at 10^-7 M after 48 hrs by sulforhodamine B assay; conditions: OVCAR-5, 48 h, read-out: Activity
SN12C = experiment: Growth inhibition of human SN12C cells assessed as cell growth at 10^-6 M after 48 hrs by sulforhodamine B assay; conditions: read-out: Activity
NCI-H460 = experiment: Growth inhibition of human NCI-H460 cells assessed as cell growth at 10^-4 M after 48 hrs by sulforhodamine B assay; conditions: NCI-H460, 48 h, read-out: Activity
HL-60(TB) [2] = experiment: Growth inhibition of human HL-60(TB) cells assessed as cell growth at 10^-7 M after 48 hrs by sulforhodamine B assay; conditions: HL-60, 48 h, read-out: Activity
[3] = Growth inhibition of human SF539 cells assessed as cell growth at 10^-7 M after 48 hrs by sulforhodamine B assay; conditions: SF-539, 48 h, read-out: Activity
MCF7 = experiment: Growth inhibition of human MCF7 cells assessed as cell growth at 10^-4 M after 48 hrs by sulforhodamine B assay; conditions: MCF7, 48 h, read-out: Activity
NCI-H322M = experiment: Growth inhibition of human NCI-H322M cells assessed as cell growth at 10^-6 M after 48 hrs by sulforhodamine B assay; conditions: read-out: Activity
[4] = Growth inhibition of human BT549 cells after 48 hrs by sulforhodamine B assay; conditions: BT-549, 48 h
[5] = Growth inhibition of human UACC257 cells assessed as cell growth at 10^-5 M after 48 hrs by sulforhodamine B assay; conditions: UACC-257, 48 h, read-out: Activity
[6] = Growth inhibition of human LOXIMVI cells assessed as cell growth at 10^-8 M after 48 hrs by sulforhodamine B assay; conditions: LOX IMVI; for growth at 0.01 µM: read-out: Activity; for TGI: read-out: pTGI (converted)
SK-MEL-28 = experiment: Growth inhibition of human SK-MEL-28 cells assessed as cell growth at 10^-8 M after 48 hrs by sulforhodamine B assay; conditions: SK-MEL-28, 48 h; for growth at 0.01 µM: read-out: Activity; for CC50: read-out: pLC50 (the source's name) (converted); for TGI: read-out: pTGI (converted)
U-251 [7] = experiment: Growth inhibition of human U251 cells assessed as cell growth at 10^-5 M after 48 hrs by sulforhodamine B assay; conditions: U-251, 48 h, read-out: Activity
U-251 [8] = experiment: Growth inhibition of human U251 cells assessed as cell growth at 10^-6 M after 48 hrs by sulforhodamine B assay; conditions: U-251, 48 h, read-out: Activity
HL-60(TB) [9] = experiment: Growth inhibition of human HL-60(TB) cells assessed as cell growth at 10^-4 M after 48 hrs by sulforhodamine B assay; conditions: HL-60, 48 h, read-out: Activity
[10] = Growth inhibition of human SF295 cells assessed as cell growth at 10^-8 M after 48 hrs by sulforhodamine B assay; conditions: SF-295, 48 h; for growth at 0.01 µM: read-out: Activity; for TGI: read-out: pTGI (converted)
NCI-H226 = experiment: Growth inhibition of human NCI-H226 cells assessed as cell growth at 10^-4 M after 48 hrs by sulforhodamine B assay; conditions: NCI-H226, 48 h, read-out: Activity
786-0 = experiment: Growth inhibition of human 786-0 cells after 48 hrs by sulforhodamine B assay; conditions: 786-0, 48 h; for CC50: read-out: LC50 (the source's name)
CCRF-CEM = experiment: Growth inhibition of human CCRF-CEM cells after 48 hrs by sulforhodamine B assay; conditions: for CC50: read-out: LC50 (the source's name)
[11] = Growth inhibition of human UACC257 cells assessed as cell growth at 10^-7 M after 48 hrs by sulforhodamine B assay; conditions: UACC-257, 48 h, read-out: Activity
[12] = Growth inhibition of human UACC257 cells after 48 hrs by sulforhodamine B assay; conditions: UACC-257, 48 h; for CC50: read-out: LC50 (the source's name)
T47D = experiment: Growth inhibition of human T47D cells assessed as cell growth at 10^-4 M after 48 hrs by sulforhodamine B assay; conditions: read-out: Activity
[13] = Growth inhibition of human LOXIMVI cells assessed as cell growth at 10^-6 M after 48 hrs by sulforhodamine B assay; conditions: LOX IMVI, read-out: Activity
SW-620 = experiment: Growth inhibition of human SW620 cells assessed as cell growth at 10^-7 M after 48 hrs by sulforhodamine B assay; conditions: SW-620, 48 h, read-out: Activity
A549 = experiment: Growth inhibition of human A549/ATCC cells assessed as cell growth at 10^-4 M after 48 hrs by sulforhodamine B assay; conditions: A549, 48 h, read-out: Activity
SF-268 = experiment: Growth inhibition of human SF268 cells assessed as cell growth at 10^-4 M after 48 hrs by sulforhodamine B assay; conditions: SF-268, 48 h, read-out: Activity
RPMI-8226 = experiment: Growth inhibition of human RPMI8226 cells after 48 hrs by sulforhodamine B assay; conditions: RPMI-8226, 48 h
[14] = Growth inhibition of human NCI-ADR-RES cells assessed as cell growth at 10^-6 M after 48 hrs by sulforhodamine B assay; conditions: read-out: Activity
SK-OV-3 = experiment: Growth inhibition of human SKOV3 cells assessed as cell growth at 10^-4 M after 48 hrs by sulforhodamine B assay; conditions: SK-OV-3, 48 h, read-out: Activity
Malme-3M = experiment: Growth inhibition of human MALME-3M cells assessed as cell growth at 10^-6 M after 48 hrs by sulforhodamine B assay; conditions: read-out: Activity
MDA-MB-468 = experiment: Growth inhibition of human MDA-MB-468 cells assessed as cell growth at 10^-6 M after 48 hrs by sulforhodamine B assay; conditions: MDA-MB-468, 48 h, read-out: Activity
SK-MEL-5 = experiment: Growth inhibition of human SK-MEL-5 cells assessed as cell growth at 10^-6 M after 48 hrs by sulforhodamine B assay; conditions: SK-MEL-5, 48 h, read-out: Activity
[15] = Growth inhibition of human HCT15 cells assessed as cell growth at 10^-6 M after 48 hrs by sulforhodamine B assay; conditions: HCT-15, 48 h, read-out: Activity
[16] = Growth inhibition of human SF539 cells assessed as cell growth at 10^-8 M after 48 hrs by sulforhodamine B assay; conditions: SF-539, 48 h; for growth at 0.01 µM: read-out: Activity; for TGI: read-out: pTGI (converted)
SR = experiment: Growth inhibition of human SR cells assessed as cell growth at 10^-8 M after 48 hrs by sulforhodamine B assay; conditions: for growth at 0.01 µM: read-out: Activity; for TGI: read-out: pTGI (converted)

SMILES: O=C1/C(=C/c2ccc(Cl)cc2Cl)CN(S(=O)(=O)c2ccccc2)C/C1=C\c1ccc(Cl)cc1Cl
- growth at 0.1 µM [1]: 94%
- growth at 1 µM (SN12C): -15%
- growth at 100 µM (NCI-H460): -61%
- growth at 0.1 µM (HL-60(TB) [2]): 92%
- growth at 0.1 µM [3]: 97%
- growth at 100 µM (MCF7): 9%
- growth at 1 µM (NCI-H322M): 35%
- GI50 [4]: 987 nM
- LC50 [4]: > 100000 nM
- TGI [4]: 4210 nM
- growth at 10 µM [5]: 27%
- GI50 [6]: 204 nM
- growth at 0.01 µM [6]: 95%
- TGI [6]: 513 nM
- GI50 (SK-MEL-28): 4470 nM
- growth at 0.01 µM (SK-MEL-28): 97%
- CC50 (SK-MEL-28): > 100000 nM
- TGI (SK-MEL-28): > 100000 nM
- growth at 10 µM (U-251 [7]): -66%
- growth at 1 µM (U-251 [8]): -64%
- growth at 100 µM (HL-60(TB) [9]): -13%
- GI50 [10]: 347 nM
- LC50 [10]: > 100000 nM
- growth at 0.01 µM [10]: 91%
- TGI [10]: 6610 nM
- growth at 100 µM (NCI-H226): -55%
- GI50 (786-0): 241 nM
- TGI (786-0): 544 nM
- CC50 (786-0): 1710 nM
- GI50 (CCRF-CEM): 286 nM
- TGI (CCRF-CEM): 994 nM
- CC50 (CCRF-CEM): > 100000 nM
- growth at 0.1 µM [11]: 90%
- GI50 [12]: 4080 nM
- TGI [12]: > 100000 nM
- CC50 [12]: > 100000 nM
- growth at 100 µM (T47D): 11%
- growth at 1 µM [13]: -37%
- growth at 0.1 µM (SW-620): 96%
- growth at 100 µM (A549): -33%
- growth at 100 µM (SF-268): 4%
- GI50 (RPMI-8226): 225 nM
- LC50 (RPMI-8226): > 100000 nM
- TGI (RPMI-8226): 605 nM
- growth at 1 µM [14]: 54%
- growth at 100 µM (SK-OV-3): 24%
- growth at 1 µM (Malme-3M): 123%
- growth at 1 µM (MDA-MB-468): 55%
- growth at 1 µM (SK-MEL-5): 94%
- growth at 1 µM [15]: -12%
- GI50 [16]: 427 nM
- LC50 [16]: > 100000 nM
- growth at 0.01 µM [16]: 98%
- TGI [16]: 2090 nM
- GI50 (SR): 186 nM
- LC50 (SR): > 100000 nM
- growth at 0.01 µM (SR): 93%
- TGI (SR): 871 nM

SMILES: Cc1ccc(S(=O)(=O)N2C/C(=C\c3cc(F)cc(F)c3)C(=O)/C(=C/c3cc(F)cc(F)c3)C2)cc1
- growth at 0.1 µM [1]: 93%
- growth at 1 µM (SN12C): 11%
- growth at 100 µM (NCI-H460): -72%
- growth at 0.1 µM (HL-60(TB) [2]): 89%
- growth at 0.1 µM [3]: 93%
- growth at 100 µM (MCF7): -72%
- growth at 1 µM (NCI-H322M): 101%
- GI50 [4]: 340 nM
- LC50 [4]: 3520 nM
- TGI [4]: 931 nM
- growth at 10 µM [5]: -57%
- GI50 [6]: 174 nM
- growth at 0.01 µM [6]: 97%
- CC50 ([6]; read-out: pLC50 (the source's name) (converted)): 661 nM
- TGI [6]: 339 nM
- GI50 (SK-MEL-28): 468 nM
- growth at 0.01 µM (SK-MEL-28): 100%
- CC50 (SK-MEL-28): 4790 nM
- TGI (SK-MEL-28): 1780 nM
- growth at 10 µM (U-251 [7]): -97.9%
- growth at 1 µM (U-251 [8]): -31%
- growth at 100 µM (HL-60(TB) [9]): -23%
- GI50 [10]: 468 nM
- LC50 [10]: 15800 nM
- growth at 0.01 µM [10]: 92%
- TGI [10]: 2510 nM
- growth at 100 µM (NCI-H226): -32%
- GI50 (786-0): 587 nM
- TGI (786-0): 1910 nM
- CC50 (786-0): 4950 nM
- GI50 (CCRF-CEM): 74.8 nM
- TGI (CCRF-CEM): 951 nM
- CC50 (CCRF-CEM): > 100000 nM
- growth at 0.1 µM [11]: 87%
- GI50 [12]: 939 nM
- TGI [12]: 2900 nM
- CC50 [12]: 8600 nM
- growth at 100 µM (T47D): -61%
- growth at 1 µM [13]: -82%
- growth at 0.1 µM (SW-620): 42%
- growth at 100 µM (A549): -34%
- growth at 100 µM (SF-268): -88%
- GI50 (RPMI-8226): 37.2 nM
- LC50 (RPMI-8226): 93800 nM
- TGI (RPMI-8226): 331 nM
- growth at 1 µM [14]: 19%
- growth at 100 µM (SK-OV-3): -68%
- growth at 1 µM (Malme-3M): -15%
- growth at 1 µM (MDA-MB-468): 22%
- growth at 1 µM (SK-MEL-5): 3%
- growth at 1 µM [15]: 5%
- GI50 [16]: 1200 nM
- LC50 [16]: 6760 nM
- growth at 0.01 µM [16]: 94%
- TGI [16]: 2880 nM
- GI50 (SR): 34.7 nM
- LC50 (SR): > 100000 nM
- growth at 0.01 µM (SR): 93%
- TGI (SR): 251 nM
